# Assay results from patent publication US20230302013A1, “METHOD OF TREATING VIRAL-INDUCED COGNITIVE D[…] TARGETING LEAKY RyR2 CHANNELS” (The Trustees of Columbia University in the City of New York, priority 2022, published 2023).
# “Also recorded” adds a separate entry of the source.
# Tests used:
# RyR2 [1] = molecular target: T1, RyR2 (Homo sapiens, UniProt Q92736); type: biochemical; details: COVID-19 patient brain tissue lysates (Ctx, CB) treated ex vivo with 10 μM compound at 4° C.; FIGS. 3A and B; p<0.05 vs untreated COVID-19
# T1 construct: RyR2 was immunoprecipitated from 1.5 mg of tissue lysate using an anti-RyR2 specific antibody; from tissue; host or cells: brain tissue (cortex, cerebellum) of COVID-19 patients and controls
# RyR2 [2] = molecular target: T1, RyR2; assay: [3H]ryanodine binding to immunoprecipitated RyR2 (surrogate of channel open probability / leak); type: biochemical
# Procedure: RyR2 was immunoprecipitated from 1.5 mg of tissue lysate using an anti-RyR2 specific antibody (25 μg) in 1.0 ml of a modified RIPA buffer overnight at 4° C. The immune complexes were incubated with protein A-Sepharose beads (Sigma) at 4° C. for 1 h, and the beads were washed three times with RIPA buffer, followed by 2 washes with ryanodine binding buffer (10 mM Tris-HCl, pH 6.8, 1 M NaCl, 1% CHAPS, 5 mg/ml phosphatidylcholine, and protease inhibitors). Immunoprecipitates were incubated in 0.2 ml of binding buffer containing 20 nM [^3H] ryanodine and either of 150 nM and 20 μm free Ca^2+ for 1 h at 37° C. Samples were diluted with 1 ml of ice-cold washing buffer (25 mm Hepes, pH 7.1, 0.25 m KCl) and filtered through Whatman GF/B membrane filters pre-soaked with 1% polyethyleneimine in washing buffer. Filters were washed three times with 5 ml of washing buffer. The radioactivity remaining on the filters is determined by liquid scintillation counting to obtain bound [^3H] ryanodine. Nonspecific binding was determined in the presence of 1000-fold excess of non-labeled ryanodine.
# T1 sequence (Q92736 whole entry): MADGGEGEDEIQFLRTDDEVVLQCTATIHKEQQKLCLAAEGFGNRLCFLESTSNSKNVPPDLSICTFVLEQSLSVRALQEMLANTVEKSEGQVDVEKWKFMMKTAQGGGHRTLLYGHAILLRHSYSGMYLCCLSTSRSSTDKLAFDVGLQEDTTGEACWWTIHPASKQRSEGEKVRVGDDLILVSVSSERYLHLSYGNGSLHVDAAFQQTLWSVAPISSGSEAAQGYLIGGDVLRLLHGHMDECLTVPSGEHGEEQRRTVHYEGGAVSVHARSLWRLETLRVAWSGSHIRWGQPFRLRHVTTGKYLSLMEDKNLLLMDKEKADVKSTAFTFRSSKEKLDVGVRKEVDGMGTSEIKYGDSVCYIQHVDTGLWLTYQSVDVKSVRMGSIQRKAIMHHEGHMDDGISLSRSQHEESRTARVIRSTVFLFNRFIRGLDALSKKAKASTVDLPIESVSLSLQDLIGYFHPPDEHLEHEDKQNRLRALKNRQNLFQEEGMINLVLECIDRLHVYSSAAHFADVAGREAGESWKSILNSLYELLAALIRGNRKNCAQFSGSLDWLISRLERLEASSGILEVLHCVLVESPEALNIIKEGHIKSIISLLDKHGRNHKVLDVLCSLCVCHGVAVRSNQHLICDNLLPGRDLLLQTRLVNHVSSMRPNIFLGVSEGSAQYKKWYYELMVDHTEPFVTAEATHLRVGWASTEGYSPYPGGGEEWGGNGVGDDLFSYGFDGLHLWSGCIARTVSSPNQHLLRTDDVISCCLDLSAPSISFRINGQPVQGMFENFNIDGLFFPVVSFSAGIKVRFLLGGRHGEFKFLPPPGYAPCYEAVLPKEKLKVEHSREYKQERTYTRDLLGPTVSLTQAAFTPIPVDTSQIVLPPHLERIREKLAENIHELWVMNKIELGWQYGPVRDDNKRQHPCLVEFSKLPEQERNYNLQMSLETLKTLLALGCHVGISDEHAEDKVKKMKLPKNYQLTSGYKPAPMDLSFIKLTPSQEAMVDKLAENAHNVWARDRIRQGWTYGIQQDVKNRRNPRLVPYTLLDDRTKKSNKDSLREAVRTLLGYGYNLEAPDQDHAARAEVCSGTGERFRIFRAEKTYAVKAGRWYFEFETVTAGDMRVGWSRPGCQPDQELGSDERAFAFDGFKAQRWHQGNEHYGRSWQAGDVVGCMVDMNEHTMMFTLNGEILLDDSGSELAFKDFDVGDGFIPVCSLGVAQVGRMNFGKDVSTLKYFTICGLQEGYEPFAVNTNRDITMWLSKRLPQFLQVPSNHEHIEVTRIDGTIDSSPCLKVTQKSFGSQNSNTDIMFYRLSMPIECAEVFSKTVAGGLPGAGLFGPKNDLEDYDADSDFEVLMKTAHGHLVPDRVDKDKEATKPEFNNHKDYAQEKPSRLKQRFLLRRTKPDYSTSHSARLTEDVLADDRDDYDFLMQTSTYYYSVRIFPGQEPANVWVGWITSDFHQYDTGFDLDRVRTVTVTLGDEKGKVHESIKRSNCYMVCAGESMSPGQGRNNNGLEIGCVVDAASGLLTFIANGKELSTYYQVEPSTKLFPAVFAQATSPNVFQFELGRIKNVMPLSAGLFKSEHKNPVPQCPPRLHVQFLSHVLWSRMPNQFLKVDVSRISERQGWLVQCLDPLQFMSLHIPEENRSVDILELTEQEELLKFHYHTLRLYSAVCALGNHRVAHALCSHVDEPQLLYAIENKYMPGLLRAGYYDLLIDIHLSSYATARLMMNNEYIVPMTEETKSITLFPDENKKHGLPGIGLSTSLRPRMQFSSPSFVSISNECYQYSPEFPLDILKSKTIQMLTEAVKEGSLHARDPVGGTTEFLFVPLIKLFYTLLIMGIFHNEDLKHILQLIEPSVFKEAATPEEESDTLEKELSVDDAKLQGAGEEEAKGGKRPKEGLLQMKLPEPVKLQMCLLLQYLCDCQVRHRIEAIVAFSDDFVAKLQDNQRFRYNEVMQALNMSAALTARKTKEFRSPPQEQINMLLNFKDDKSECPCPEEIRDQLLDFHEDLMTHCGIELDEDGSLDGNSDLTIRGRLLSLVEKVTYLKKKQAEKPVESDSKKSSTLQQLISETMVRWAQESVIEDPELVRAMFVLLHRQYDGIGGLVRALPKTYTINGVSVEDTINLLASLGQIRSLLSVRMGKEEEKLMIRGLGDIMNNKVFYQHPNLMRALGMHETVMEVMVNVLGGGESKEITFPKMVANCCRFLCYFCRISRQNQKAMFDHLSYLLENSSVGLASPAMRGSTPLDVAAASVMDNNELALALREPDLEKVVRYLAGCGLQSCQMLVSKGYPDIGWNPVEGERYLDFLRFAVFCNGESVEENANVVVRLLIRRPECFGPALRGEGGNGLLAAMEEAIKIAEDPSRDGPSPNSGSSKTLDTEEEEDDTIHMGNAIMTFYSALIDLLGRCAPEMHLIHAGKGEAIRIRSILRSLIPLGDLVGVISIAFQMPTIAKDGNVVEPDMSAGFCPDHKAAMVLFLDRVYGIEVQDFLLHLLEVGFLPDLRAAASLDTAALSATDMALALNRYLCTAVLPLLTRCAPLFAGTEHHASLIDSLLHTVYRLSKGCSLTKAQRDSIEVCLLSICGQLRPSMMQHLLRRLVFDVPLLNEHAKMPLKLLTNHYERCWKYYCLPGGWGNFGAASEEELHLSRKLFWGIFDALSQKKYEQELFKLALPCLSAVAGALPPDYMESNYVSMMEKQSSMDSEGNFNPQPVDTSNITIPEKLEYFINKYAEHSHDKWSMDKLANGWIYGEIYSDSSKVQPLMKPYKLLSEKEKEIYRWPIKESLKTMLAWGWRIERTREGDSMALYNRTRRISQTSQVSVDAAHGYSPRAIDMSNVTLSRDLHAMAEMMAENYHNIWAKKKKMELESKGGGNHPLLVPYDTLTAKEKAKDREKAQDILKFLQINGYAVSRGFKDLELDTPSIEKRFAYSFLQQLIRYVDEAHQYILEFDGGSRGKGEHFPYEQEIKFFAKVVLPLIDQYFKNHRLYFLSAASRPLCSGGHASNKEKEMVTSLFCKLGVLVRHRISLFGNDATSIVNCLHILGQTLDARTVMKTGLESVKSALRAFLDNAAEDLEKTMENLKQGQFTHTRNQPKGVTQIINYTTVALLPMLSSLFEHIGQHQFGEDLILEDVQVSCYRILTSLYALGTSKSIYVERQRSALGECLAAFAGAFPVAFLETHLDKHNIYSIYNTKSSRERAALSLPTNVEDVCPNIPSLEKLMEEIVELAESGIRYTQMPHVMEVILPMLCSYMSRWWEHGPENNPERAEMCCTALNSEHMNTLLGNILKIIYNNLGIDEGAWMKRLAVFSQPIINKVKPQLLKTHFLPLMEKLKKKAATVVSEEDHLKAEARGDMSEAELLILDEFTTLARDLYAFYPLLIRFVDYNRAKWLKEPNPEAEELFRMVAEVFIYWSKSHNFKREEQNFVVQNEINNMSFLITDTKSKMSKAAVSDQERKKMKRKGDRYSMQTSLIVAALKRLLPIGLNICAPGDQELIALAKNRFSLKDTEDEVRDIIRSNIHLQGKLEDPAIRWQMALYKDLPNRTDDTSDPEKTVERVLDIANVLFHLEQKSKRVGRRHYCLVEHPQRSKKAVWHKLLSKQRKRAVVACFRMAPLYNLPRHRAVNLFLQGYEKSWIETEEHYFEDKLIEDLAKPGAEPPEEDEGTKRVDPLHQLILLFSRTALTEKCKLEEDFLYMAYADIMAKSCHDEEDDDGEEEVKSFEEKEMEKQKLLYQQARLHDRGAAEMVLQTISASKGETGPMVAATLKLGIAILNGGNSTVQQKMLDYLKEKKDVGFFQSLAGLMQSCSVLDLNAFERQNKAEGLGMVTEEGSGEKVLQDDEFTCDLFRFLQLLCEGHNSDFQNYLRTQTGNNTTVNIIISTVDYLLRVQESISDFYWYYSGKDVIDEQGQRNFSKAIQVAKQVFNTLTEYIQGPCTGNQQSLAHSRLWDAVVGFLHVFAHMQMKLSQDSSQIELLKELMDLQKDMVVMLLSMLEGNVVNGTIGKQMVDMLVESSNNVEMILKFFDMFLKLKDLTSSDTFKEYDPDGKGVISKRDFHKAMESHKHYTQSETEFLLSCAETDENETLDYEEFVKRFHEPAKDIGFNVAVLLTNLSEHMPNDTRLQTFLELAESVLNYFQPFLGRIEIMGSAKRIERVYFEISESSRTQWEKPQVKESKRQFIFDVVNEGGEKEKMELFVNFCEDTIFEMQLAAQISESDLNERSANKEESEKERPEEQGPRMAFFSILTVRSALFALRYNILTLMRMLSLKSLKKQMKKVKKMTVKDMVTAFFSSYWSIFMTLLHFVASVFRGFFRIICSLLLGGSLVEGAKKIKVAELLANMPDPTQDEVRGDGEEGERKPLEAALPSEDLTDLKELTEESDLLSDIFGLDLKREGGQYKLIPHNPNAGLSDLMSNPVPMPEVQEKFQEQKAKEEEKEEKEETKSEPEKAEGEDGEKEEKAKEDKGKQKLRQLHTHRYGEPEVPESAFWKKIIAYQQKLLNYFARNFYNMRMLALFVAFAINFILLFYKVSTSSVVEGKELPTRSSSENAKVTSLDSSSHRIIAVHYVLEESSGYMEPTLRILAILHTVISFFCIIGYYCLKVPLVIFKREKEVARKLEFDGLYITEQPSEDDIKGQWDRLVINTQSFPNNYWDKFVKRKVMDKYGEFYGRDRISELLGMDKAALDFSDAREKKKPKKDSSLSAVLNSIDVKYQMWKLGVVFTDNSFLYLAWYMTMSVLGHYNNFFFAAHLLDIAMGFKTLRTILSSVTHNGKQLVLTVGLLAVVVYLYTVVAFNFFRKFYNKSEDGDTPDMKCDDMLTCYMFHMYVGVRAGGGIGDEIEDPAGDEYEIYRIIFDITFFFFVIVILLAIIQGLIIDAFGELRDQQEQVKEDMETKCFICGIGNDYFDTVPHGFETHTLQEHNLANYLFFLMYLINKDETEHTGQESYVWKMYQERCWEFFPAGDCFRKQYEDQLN
# T1 sequence (P68106 whole entry partner): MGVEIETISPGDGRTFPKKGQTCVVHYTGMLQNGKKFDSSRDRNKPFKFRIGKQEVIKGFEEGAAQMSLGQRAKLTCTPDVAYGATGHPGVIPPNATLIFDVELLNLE
compound,measurement,setting,value
COc1ccc2c(c1)CN(Cc1ccc(C(=O)O)cc1)CCS2 [Compound 1],calstabin2 binding to RyR2,RyR2 [1],increased
same,abnormal RyR2 activity ([3H]ryanodine binding) at resting Ca2+ concentration,"RyR2 [2]; RyR2 immunoprecipitated from COVID-19 brain lysates, 150 nM free Ca2+, as percent of maximum binding (20 μM Ca2+), FIG. 3C, p<0.05 vs untreated COVID-19",decreased
same,RyR2 channel leak,RyR2 [2]; ex vivo treatment of COVID-19 patient brain samples,corrected; also recorded: fixed the channel leak
